# Measured values from PMC10485887, “PET Evaluation of the Novel F-18 Labeled Reversible Radioligand [^18F]GEH200449 for Detection of Monoamine Oxidase-B in the Non-Human Primate Brain” (ACS Chemical Neuroscience, 2023).
# “And” between values parts separate entries of the source, which are not always exact repeats. Identical values can stand only once. Like-named read-outs stand apart in the source and are kept apart here.
# Assays:
# MAO-B [1] = type: in vivo, Macaca fascicularis
# Method: Each PET measurement was performed on a separate experimental day. Experiments conducted in the same NHP were separated by at least 6 weeks. Baseline PET measurements were initially undertaken in each of the five NHPs.
# Time curves for regional [^18F]GEH200449 binding at baseline were analyzed by kinetic modeling using 1-TC and 2-TC models,[32] and VT as outcome measures. Akaike information criterion[33] and F statistics were applied to select the preferred model. Regional estimates of VT for [^18F]GEH200449 were also obtained using the Logan linear graphical method[34] with t* fixed at 40 min. The analyses were performed using the kinetic modeling tool in PMOD v. 4.3. Occupancy at [^18F]GEH200449 binding sites was estimated based on regional VT values obtained by the Logan method at baseline and after drug administration according to a graphical procedure described in the literature.[22]
# MAO-B [2] = system: MAO-B; design: method as in PMID 31589885; conditions: cited from earlier work
SMILES,"effect on [^18F]GEH200449 regional radioactivity (MAO-B [1]; 1.0 mg/kg, 15 min before PET, NHP #5)",affinity toward MAO-B (MAO-B [2]),"effect on [^18F]GEH200449 regional radioactivity (MAO-B [1]; 0.15 mg/kg, 15 min before PET, NHP #3)","occupancy at MAO-B ([^18F]GEH200449 binding sites) (MAO-B [1]; 0.75 mg/kg IV, 45 min before radioligand, NHP #4, graphical analysis of VT)","inhibitory effect on [^18F]GEH200449 binding, dose dependency (MAO-B [1]; 0.25 and 0.75 mg/kg pretreatment, NHP #4)",effect on [^18F]GEH200449 regional radioactivity (MAO-B [1]; pretreatment 45 min before radioligand injection)
CN1CC(=O)NC1=NC(=O)Nc1cccc(Cl)c1 [fenobam],reduction,high affinity,,,,
N#Cc1cc(F)cc(-c2nc(-c3ccc(F)cn3)no2)c1 [AZD9272],,high affinity,reduction,,,
"C#CCN[C@@H]1CCc2ccccc21 [rasagiline, N-Propargyl-1R(+)-Aminoindan]",,,,97% and > 80%,more pronounced after the higher dose,inhibited
